Source: patent US9234000B2, “Benzylamine derivatives as inhibitors of plasma kallikrein” (KalVista Pharmaceuticals Limited, priority 2011, dated 2016)

Tests used:
Type in all cases: biochemical
[1] = biological target: Factor XIIa (Homo sapiens (Human), UniProt P00748); experiment: Determination of enzyme selectivity: Factor XIIa; conditions: fluorogenic substrate at Km concentration
Protocol: Determination of Enzyme Selectivity
Human serine protease enzymes plasmin, thrombin, trypsin, Factor Xa and Factor XIIa were assayed for enzymatic activity using an appropriate fluorogenic substrate. Protease activity was measured by monitoring the accumulation of liberated fluorescence from the substrate over 5 minutes. The linear rate of fluorescence increase per minute was expressed as percentage (%) activity. The Km for the cleavage of each substrate was determined by standard transformation of the Michaelis-Menten equation.

[2] = biological target: Human KLK1 (Homo sapiens (Human), UniProt P06870); experiment: Determination of the IC50 for KLK1; conditions: Human KLK1, 37° C., substrate H-DVal-Leu-Arg-AFC; Table 13
Sequence of Human KLK1 (P06870 25-262): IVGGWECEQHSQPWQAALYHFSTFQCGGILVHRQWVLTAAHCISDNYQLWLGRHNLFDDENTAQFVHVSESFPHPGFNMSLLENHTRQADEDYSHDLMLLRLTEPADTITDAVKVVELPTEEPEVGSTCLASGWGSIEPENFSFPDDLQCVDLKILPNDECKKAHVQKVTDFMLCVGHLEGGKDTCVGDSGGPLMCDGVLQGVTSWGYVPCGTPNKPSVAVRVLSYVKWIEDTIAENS
Outline: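 hKLK1 + H-DVal-Leu-Arg-AFC, 37° C, varied cpd conc. Initial rate by A410 change → residual activity → IC50.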

[3] = biological target: Human plasma kallikrein (Homo sapiens (Human), UniProt P03952); experiment: Determination of the IC50 for plasma kallikrein; conditions: 37° C., substrate H-DPro-Phe-Arg-AFC, read-out: IC50 (human PKal)
Sequence of Human plasma kallikrein (P03952 391-638): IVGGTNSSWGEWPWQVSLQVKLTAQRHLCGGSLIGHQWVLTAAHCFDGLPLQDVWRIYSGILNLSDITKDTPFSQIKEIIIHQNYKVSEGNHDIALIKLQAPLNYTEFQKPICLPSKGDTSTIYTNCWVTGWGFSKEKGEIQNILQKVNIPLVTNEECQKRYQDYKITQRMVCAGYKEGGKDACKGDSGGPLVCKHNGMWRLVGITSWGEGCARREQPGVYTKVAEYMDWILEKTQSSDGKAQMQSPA
Sequence of Human plasma kallikrein (P03952 20-390 partner): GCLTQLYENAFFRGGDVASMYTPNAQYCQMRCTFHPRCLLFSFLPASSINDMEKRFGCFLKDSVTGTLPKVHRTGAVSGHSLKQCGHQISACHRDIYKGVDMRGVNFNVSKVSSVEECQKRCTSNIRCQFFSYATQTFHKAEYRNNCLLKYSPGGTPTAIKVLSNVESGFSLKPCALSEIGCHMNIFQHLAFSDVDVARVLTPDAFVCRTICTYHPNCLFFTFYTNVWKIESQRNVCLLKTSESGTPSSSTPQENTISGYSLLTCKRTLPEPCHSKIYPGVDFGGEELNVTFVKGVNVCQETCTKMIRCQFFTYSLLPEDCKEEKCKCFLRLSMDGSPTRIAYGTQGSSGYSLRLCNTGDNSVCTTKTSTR
Outline: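 Residual activity (initial rate, absorbance at 410 nm) gave the IC50. Reactions at 37° C combined human plasma kallikrein, substrate H-DPro-Phe-Arg-AFC and a range of inhibitor concentrations.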

Sequence of Factor XIIa (P00748 373-615): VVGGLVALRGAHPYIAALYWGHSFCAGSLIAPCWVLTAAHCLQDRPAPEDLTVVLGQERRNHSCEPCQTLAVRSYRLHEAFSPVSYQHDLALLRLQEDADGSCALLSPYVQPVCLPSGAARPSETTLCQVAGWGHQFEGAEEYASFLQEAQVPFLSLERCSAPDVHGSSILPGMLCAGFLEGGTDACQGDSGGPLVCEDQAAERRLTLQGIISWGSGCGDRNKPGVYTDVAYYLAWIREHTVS

Structure (SMILES)	IC50 [1] [nM]	IC50 [2] [nM]	IC50 [3] [nM]
CCOc1ccc(C[C@@H](NC(=O)Cc2ccccc2)C(=O)N[C@@H](Cc2ccccc2)C(=O)NCc2ccc(CN)cc2)cc1 [Example 85, (S)-N-(4-Aminomethyl-benzyl)-2-[(R)-3-(4-ethoxy-phenyl)-2-phenylacetylamino-propionylamino]-3-phenyl-propionamide]	> 10000	2900	485
CCOc1ccc(C[C@@H](NC(=O)c2[nH]ccc2C)C(=O)N[C@@H](Cc2csc3ccccc23)C(=O)NCc2ccc(CN)cc2)cc1 [Example 186, 3-Methyl-1H-pyrrole-2-carboxylic acid [(R)-1-[(S)-1-(4-aminomethyl-benzylcarbamoyl)-2-benzo[b]thiophen-3-yl-ethylcarbamoyl]-2-(4-ethoxy-phenyl)-ethyl]-amide]	> 10000	3800	14
CCOc1ccc(C[C@@H](NC(=O)c2sccc2Cl)C(=O)N[C@H](C(=O)NCc2ccc(CN)cc2)[C@H](O)c2ccccc2)cc1 [Example 198, 3-Chloro-thiophene-2-carboxylic acid [(R)-1-[(1S,2R)-1-(4-aminomethyl-benzylcarbamoyl)-2-hydroxy-2-phenyl-ethylcarbamoyl]-2-(4-ethoxy-phenyl)-ethyl]-amide]	> 10000	9100	7
CCOc1ccc(C[C@@H](NC(=O)c2ccccc2)C(=O)N[C@@H](Cc2cccnc2)C(=O)NCc2ccc(CN)c(C)c2)cc1 [Example 192, N-[(R)-1-[(S)-1-(4-Aminomethyl-3-methyl-benzylcarbamoyl)-2-pyridin-3-yl-ethylcarbamoyl]-2-(4-ethoxy-phenyl)-ethyl]-benzamide]	> 10000	> 10000	12
CCOc1ccc(C[C@@H](NC(=O)c2cccc(C)c2)C(=O)N[C@@H](Cc2cccnc2)C(=O)NCc2ccc(CN)cc2)cc1 [Example 189, N-[(R)-1-[(S)-1-(4-Aminomethyl-benzylcarbamoyl)-2-pyridin-3-yl-ethylcarbamoyl]-2-(4-ethoxy-phenyl)-ethyl]-3-methyl-benzamide]	> 10000	> 10000	23

More lines, now with the values ahead:

IC50 [1] [nM]	IC50 [2] [nM]	IC50 [3] [nM]	Structure (SMILES)
> 10000	> 10000	49	CCOc1ccc(C[C@@H](NC(=O)c2ccc(C)cc2)C(=O)N[C@@H](Cc2cscn2)C(=O)NCc2ccc(CN)cc2)cc1 [Example 185, N-[(R)-1-[(S)-1-(4-Aminomethyl-benzylcarbamoyl)-2-thiazol-4-yl-ethylcarbamoyl]-2-(4-ethoxy-phenyl)-ethyl]-4-methyl-benzamide]
> 10000	> 10000	14	CCOc1ccc(C[C@@H](NC(=O)c2sccc2NC(C)=O)C(=O)N[C@@H](Cc2csc3ccccc23)C(=O)NCc2ccc(CN)cc2)cc1 [Example 195, 3-Acetylamino-thiophene-2-carboxylic acid [(R)-1-[(S)-1-(4-aminomethyl-benzylcarbamoyl)-2-benzo[b]thiophen-3-yl-ethylcarbamoyl]-2-(4-ethoxy-phenyl)-ethyl]-amide]
> 10000	> 10000	10	CCOc1ccc(C[C@@H](NC(=O)c2sccc2Cl)C(=O)N[C@@H](Cc2cscn2)C(=O)NCc2ccc(CN)cc2)cc1 [Example 184, 3-Chloro-thiophene-2-carboxylic acid [(R)-1-[(S)-1-(4-aminomethyl-benzylcarbamoyl)-2-thiazol-4-yl-ethylcarbamoyl]-2-(4-ethoxy-phenyl)-ethyl]-amide]
> 10000	> 10000	764	CCOc1ccc(C[C@@H](NC(=O)/C=C/c2ccccc2)C(=O)N[C@@H](Cc2ccccc2)C(=O)NCc2ccc(CN)cc2)cc1 [Example 96, (E)-N-[(R)-1-[(S)-1-(4-Aminomethyl-benzylcarbamoyl)-2-phenyl-ethylcarbamoyl]-2-(4-ethoxy-phenyl)-ethyl]-3-phenyl-acrylamide]
